What is called IC50 is the concentration needed to halve the response being measured.

The target of assay [1] is T1, BCAT2 (Homo sapiens, UniProt O15382).
T1 sequence (O15382 28-392): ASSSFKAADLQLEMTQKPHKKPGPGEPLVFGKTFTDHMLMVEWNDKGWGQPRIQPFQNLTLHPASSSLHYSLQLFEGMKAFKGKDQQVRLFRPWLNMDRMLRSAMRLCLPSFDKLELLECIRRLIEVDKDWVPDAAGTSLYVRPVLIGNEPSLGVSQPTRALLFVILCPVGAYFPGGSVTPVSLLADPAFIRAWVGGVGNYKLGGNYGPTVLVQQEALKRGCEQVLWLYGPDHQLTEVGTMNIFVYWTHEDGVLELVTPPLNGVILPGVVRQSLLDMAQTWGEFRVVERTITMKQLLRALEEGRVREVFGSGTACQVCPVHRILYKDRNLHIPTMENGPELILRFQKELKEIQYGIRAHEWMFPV
The experiment in a line: BCAT2 in vitro enzyme inhibition assay (hBCAT2, glutamate dehydrogenase/diaphorase/resazurin coupled fluorescence read). In kind it is biochemical. The settings on record: hBCAT2, 1 h preincubation at 25° C., one hour reaction; average where tested multiple times. Put shortly: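 Coupled GDH/diaphorase/resazurin fluorescence (Ex 540/Em 590) read after 1 h reaction at 25 °C, SDS-stopped; enzyme (0.33 μg/mL in mix) first preincubated 1 h with compound, 10-point 3-fold series from 100 μM final, Tris pH 8.0 buffer with NaCl, BSA; technical duplicates, averaged across tests.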
In general terms: Alamar Blue is a resazurin reagent that responds to reducing activity.

The target of assay [2] is T1, BCAT2. Nature of the assay: BCAT2 cell inhibition using engineered A549 cells (MUT KO, BCAT1 KO; 13C6-KMV formation by LC-MS/MS). More on the design: expressed endogenous BCAT2; endogenous in cells; host or cells: A549 cells, MUT knockout and BCAT1 knockout. Format: cell-based. The source says: Endogenous Methylmalonyl-CoA Mutase (MUT) and Branched Chain Aminotransferase 1 (BCAT1) in A549 cells was knocked out by CRISPR/CAS9 using the targeting system from TransOMIC Technologies. The following guide sequence was cloned into pCLIP-ALL-EFS-Blast vector to target human MUT: […] (SEQ ID NO: 35). The following guide sequence was cloned into pCLIP-ALL-EFS-Puro vector to target human BCAT1: […] (SEQ ID NO: 36). The resulting plasmids were co-transfected into 293T cells with VSV-G, P-PEX, and Fugene-6. Lentivirus was harvested and A549 cells were first transduced with lentivirus targeting MUT and polybrene. After genetic selection with blasticidin clonal selection was performed and validated via western blot analysis to confirm MUT was no longer expressed. These MUT KO cells were then transduced with lentivirus targeting BCAT1 and polybrene. After selection with puromycin clonal selection was performed and clones were validated via western blot analysis to confirm BCAT1 was no longer expressed in these cells. The result was an engineered A549 cell line that expressed endogenous BCAT2.
For KMV cell assays, on day 1, 25,000 cells/100 μL EMEM (10% FBS) were seeded in each well of a 96-well plate. On day 2, medium was replaced with 50 μL fresh EMEM (10% dialyzed FBS) containing 2× the assay concentration of experimental compound. After 15 minutes, 50 μL of 800 uM ^15N,^13C6-Isoleucine in EMEM (10% dialyzed FBS) was added to each well and incubated for 24 hours. On day 3, 50 μL of media from each well was collected and transferred to another 96-well plate for ^13C6-3-Methyl-2-Oxopentanoic Acid (KMV) analysis via LC-MS/MS. In the remaining assay wells 50 μL of Promega Glo CTG reagent was added and luminescence was measured as a cell viability readout.
For LC-MS/MS analysis 5 μL of cell assay media from each well was transferred to a 96-well plate and 45 μL of ACN:0.1% NaOH (50:50, v/v)^+0.20 nM d8-KMV was added and mixed on a shaker. 15 μL was transferred to a new 96-well plate and 15 μL of 10 mg/mL PFBHA solution was added and mixed on the shaker. The reaction was placed on ice for 30 minutes and quenched with 10 μL of ACN: Acetone (50:50, v/v) on a shaker. The resulting mixture was diluted with 100 μL of ACN:0.1% NaOH (50:50, v/v) on a shaker. 10 μL of sample were injected on the Shimadzu 20AD LC-MS/MS to quantify ^13C6-KMV.
Where a compound was tested multiple times, the average value of the tests is reported.

Some results are limits rather than exact numbers.

Turning to `CC(C)(O)COc1ccc(Cl)cc1C(=O)N[C@H]1CCC[C@@H](n2c(-c3ccccc3F)nc3cnc(-c4nc[nH]n4)cc32)C1` [Example 39, 5-chloro-N-((1S,3R)-3-(2-(2-fluorophenyl)-6-(1H-1,2,4-triazol-3-yl)-1H-imidazo[4,5-c]pyridin-1-yl)cyclohexyl)-2-(2-hydroxy-2-methylpropoxy)benzamide], the IC50 against BCAT2 [1] and against BCAT2 [2] was less than 100 nM in each case.

For the compound `O=C(N[C@H]1CCC[C@@H](n2c(-c3ccccc3F)nc3cnc(-c4nc[nH]n4)cc32)C1)c1cc(Cl)ccc1CO` [Example 40, 5-chloro-N-((1S,3R)-3-(2-(2-fluorophenyl)-6-(1H-1,2,4-triazol-3-yl)-1H-imidazo[4,5-c]pyridin-1-yl)cyclohexyl)-2-(hydroxymethyl)benzamide], the results for the IC50 against BCAT2 [1] and at BCAT2 [2] were less than 100 nM and 100 to 500 nM, respectively.

For the compound `N#Cc1ccccc1-c1nc2cnc(-c3nc[nH]n3)cc2n1[C@@H]1CCC[C@H](NC(=O)c2cc(Cl)ccn2)C1` [Example 45, 4-chloro-N-((1S,3R)-3-(2-(2-cyanophenyl)-6-(1H-1,2,4-triazol-3-yl)-1H-imidazo[4,5-c]pyridin-1-yl)cyclohexyl)picolinamide], the IC50 against BCAT2 [1] and against BCAT2 [2] was less than 100 nM in each case.

For the compound `CC(C)COc1ccc(Cl)cc1C(=O)N[C@H]1CCC[C@@H](n2c(-c3ccccc3C#N)nc3cnc(-c4nc[nH]n4)cc32)C1` [Example 49, 5-chloro-N-((1S,3R)-3-(2-(2-cyanophenyl)-6-(1H-1,2,4-triazol-3-yl)-1H-imidazo[4,5-c]pyridin-1-yl)cyclohexyl)-2-isobutoxybenzamide], the figures for the IC50 on BCAT2 [1] and at BCAT2 [2] were less than 100 nM and 100 to 500 nM, respectively.

In the case of `O=C(N[C@H]1CCC[C@@H](n2c(-c3ccccc3F)nc3cnc(-c4nc[nH]n4)cc32)C1)c1cc(Cl)ccc1O` [Example 53, 5-chloro-N-((1S,3R)-3-(2-(2-fluorophenyl)-6-(1H-1,2,4-triazol-3-yl)-1H-imidazo[4,5-c]pyridin-1-yl)cyclohexyl)-2-hydroxybenzamide], the IC50 against BCAT2 [1] and at BCAT2 [2] was less than 100 nM in each case.

`COCCOc1ccc(Cl)cc1C(=O)N[C@H]1CCC[C@@H](n2c(-c3ccccc3F)nc3cnc(-c4nc[nH]n4)cc32)C1` [Example 54, 5-chloro-N-((1S,3R)-3-(2-(2-fluorophenyl)-6-(1H-1,2,4-triazol-3-yl)-1H-imidazo[4,5-c]pyridin-1-yl)cyclohexyl)-2-(2-methoxyethoxy)benzamide]: the IC50 at BCAT2 [1] and at BCAT2 [2] was less than 100 nM in each case.

As for `CN(C)CCOc1ccc(Cl)cc1C(=O)N[C@H]1CCC[C@@H](n2c(-c3ccccc3F)nc3cnc(-c4nc[nH]n4)cc32)C1` [Example 55, 5-chloro-2-(2-(dimethylamino)ethoxy)-N-((1S,3R)-3-(2-(2-fluorophenyl)-6-(1H-1,2,4-triazol-3-yl)-1H-imidazo[4,5-c]pyridin-1-yl)cyclohexyl)benzamide], the IC50 against BCAT2 [1] was less than 100 nM; at BCAT2 [2] (read-out: BCAT2 Cell Inhibition (IC50), engineered A549 cells, 24 hours, 13C6-KMV in media, average where tested multiple times), more than 1000 nM.

With `O=C(N[C@H]1CCC[C@@H](n2c(-c3ccccc3F)nc3cnc(-c4nc[nH]n4)cc32)C1)c1cc(Cl)ccc1F` [Example 56, 5-chloro-2-fluoro-N-((1S,3R)-3-(2-(2-fluorophenyl)-6-(1H-1,2,4-triazol-3-yl)-1H-imidazo[4,5-c]pyridin-1-yl)cyclohexyl)benzamide], the IC50 against BCAT2 [1] and against BCAT2 [2] was less than 100 nM throughout.

For `CC(C)Cc1nc2cnc(-n3nccn3)cc2n1[C@@H]1CCC[C@H](NC(=O)c2cc(Cl)ccc2OCCO)C1` [Example 57, 5-chloro-2-(2-hydroxyethoxy)-N-((1S,3R)-3-(2-isobutyl-6-(2H-1,2,3-triazol-2-yl)-1H-imidazo[4,5-c]pyridin-1-yl)cyclohexyl)benzamide], the IC50 on BCAT2 [1] is less than 100 nM; against BCAT2 [2] it was 500 to 1000 nM.

For the compound `O=C(N[C@H]1CCC[C@@H](n2c(-c3ccccc3F)nc3cnc(-c4nc[nH]n4)cc32)C1)c1cc(F)ccc1F` [Example 58, 2,5-difluoro-N-((1S,3R)-3-(2-(2-fluorophenyl)-6-(1H-1,2,4-triazol-3-yl)-1H-imidazo[4,5-c]pyridin-1-yl)cyclohexyl)benzamide], the IC50 against BCAT2 [1] and against BCAT2 [2] was less than 100 nM throughout.

For the compound `COCCOc1ccc(F)cc1C(=O)N[C@H]1CCC[C@@H](n2c(-c3ccccc3F)nc3cnc(-c4nc[nH]n4)cc32)C1` [Example 59, 5-fluoro-N-((1S,3R)-3-(2-(2-fluorophenyl)-6-(1H-1,2,4-triazol-3-yl)-1H-imidazo[4,5-c]pyridin-1-yl)cyclohexyl)-2-(2-methoxyethoxy)benzamide], the IC50 at BCAT2 [1] and at BCAT2 [2] was less than 100 nM in each case.

In the case of `O=C(N[C@H]1CCC[C@@H](n2c(-c3ccccc3F)nc3cnc(-n4nccn4)cc32)C1)c1cc(Cl)ccc1OCCO` [Example 68, 5-chloro-N-((1S,3R)-3-(2-(2-fluorophenyl)-6-(2H-1,2,3-triazol-2-yl)-1H-imidazo[4,5-c]pyridin-1-yl)cyclohexyl)-2-(2-hydroxyethoxy)benzamide], the IC50 on BCAT2 [1] and at BCAT2 [2] was less than 100 nM in each case.

Turning to `O=C(N[C@H]1CCC[C@@H](n2c(-c3c(O)cccc3F)nc3cnc(-c4nc[nH]n4)cc32)C1)c1cc(Cl)ccn1` [Example 70, 4-chloro-N-((1S,3R)-3-(2-(2-fluoro-6-hydroxyphenyl)-6-(1H-1,2,4-triazol-3-yl)-1H-imidazo[4,5-c]pyridin-1-yl)cyclohexyl)picolinamide], the IC50 at BCAT2 [1] and against BCAT2 [2] was less than 100 nM throughout.

For `CC(C)(O)COc1ccc(Cl)cc1C(=O)N[C@H]1CCC[C@@H](n2c(-c3ccccc3F)nc3cnc(-n4nccn4)cc32)C1` [Example 71, 5-chloro-N-((1S,3R)-3-(2-(2-fluorophenyl)-6-(2H-1,2,3-triazol-2-yl)-1H-imidazo[4,5-c]pyridin-1-yl)cyclohexyl)-2-(2-hydroxy-2-methylpropoxy)benzamide], the concentration for half-maximal inhibition (IC50) on BCAT2 [1] and against BCAT2 [2] was less than 100 nM throughout.

Turning to `COCCOc1ccc(Cl)cc1C(=O)N[C@H]1CCC[C@@H](n2c(-c3ccccc3F)nc3cnc(-n4nccn4)cc32)C1` [Example 72, 5-chloro-N-((1S,3R)-3-(2-(2-fluorophenyl)-6-(2H-1,2,3-triazol-2-yl)-1H-imidazo[4,5-c]pyridin-1-yl)cyclohexyl)-2-(2-methoxyethoxy)benzamide], the IC50 on BCAT2 [1] and against BCAT2 [2] was less than 100 nM throughout.

Turning to `O=C(N[C@H]1CCC[C@@H](n2c(-c3ccccc3F)nc3cnc(-c4nc[nH]n4)cc32)C1)c1c(F)cccc1F` [Example 74, 2,6-difluoro-N-((1S,3R)-3-(2-(2-fluorophenyl)-6-(1H-1,2,4-triazol-3-yl)-1H-imidazo[4,5-c]pyridin-1-yl)cyclohexyl)benzamide], the IC50 at BCAT2 [1] was less than 100 nM; at BCAT2 [2] it was 100 to 500 nM.

`O=C(N[C@H]1CCC[C@@H](n2c(-c3ccccc3F)nc3cnc(-c4nc[nH]n4)cc32)C1)c1ccccc1F` [Example 76, 2-fluoro-N-((1S,3R)-3-(2-(2-fluorophenyl)-6-(1H-1,2,4-triazol-3-yl)-1H-imidazo[4,5-c]pyridin-1-yl)cyclohexyl)benzamide]: the IC50 against BCAT2 [1] and against BCAT2 [2] was less than 100 nM throughout.

(Values after US20260334439A1, “BCAT2 INHIBITORS” (Agios Pharmaceuticals, Inc., priority 2023, published 2026).)
